Assay [1] deals with T1, Af-OMO (ornithine monooxygenase, SidA) (Aspergillus fumigatus, UniProt E9QYP0). Briefly: hydroxylation coupling ratio. The class given is biochemical.
For assay [2], the target named is T1, Af-OMO (ornithine monooxygenase, SidA).
Assay [3] has the same target. Nature of the assay: stopped-flow UV/vis, concentration dependence of kobs for FAD-OOH formation. The class given is biochemical.
For assay [4] the target is unchanged. The description is as above. The class given is biochemical. This is another data set of the same source.
For assay [5] the target is unchanged. Briefly: stopped-flow UV/vis, concentration dependence of kobs. Type of assay: biochemical.
The target is the same in assay [6]. The description is as above. The class given is biochemical. The source holds these as a separate data set.
Assay [7] has the same target. Nature of the assay: stopped-flow. The class given is biochemical.

Each structure is given as a SMILES string. Where two headings read alike, the source gives them in different places.

T1 sequence (E9QYP0 whole entry): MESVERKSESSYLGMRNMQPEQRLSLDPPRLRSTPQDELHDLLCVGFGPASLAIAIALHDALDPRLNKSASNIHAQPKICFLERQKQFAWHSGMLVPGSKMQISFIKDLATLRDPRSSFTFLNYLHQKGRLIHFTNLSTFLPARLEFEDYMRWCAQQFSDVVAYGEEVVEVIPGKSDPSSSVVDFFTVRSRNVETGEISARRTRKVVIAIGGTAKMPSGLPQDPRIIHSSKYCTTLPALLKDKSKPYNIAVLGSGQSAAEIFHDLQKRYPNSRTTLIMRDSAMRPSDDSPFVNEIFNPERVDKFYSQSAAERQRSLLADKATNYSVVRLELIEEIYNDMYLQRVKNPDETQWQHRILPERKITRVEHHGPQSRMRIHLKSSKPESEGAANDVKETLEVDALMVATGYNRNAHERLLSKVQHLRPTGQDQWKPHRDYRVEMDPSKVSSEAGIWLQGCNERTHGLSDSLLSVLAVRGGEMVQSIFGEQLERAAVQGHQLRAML

In the case of `NCCC[C@@H](N)C(=O)O` [D-Orn, D-ornithine], in assay [1], the “compd-OH: NADPH ^c” value is on record as 0.63 (0.03).

For the molecule `NCCCCN` [DAB, 1,4-diaminobutane], the “compd-OH: NADPH ^c” value in assay [2] is given as 0.59 (0.02). On to `N=C(N)NCCC[C@H](N)C(=O)O` [L-Arg, L-arginine], for which, in assay [3], the affinity, expressed as Kd, was 620 ± 70 µM. For `NC(=O)NCCC[C@H](N)C(=O)O` [L-Citr, L-citrulline], the Kd in assay [4] came out at 4400 ± 900 µM. In the case of `NCCCC[C@H](N)C(=O)O` [L-Lys, L-lysine], the affinity in assay [5], expressed as Kd, was 130 ± 30 µM.

On to `NCCC[C@H](N)C(=O)O` [L-Orn, L-ornithine], for which binding in assay [6] was characterised by a dissociation constant (Kd) of 310 ± 40 µM.

For `N[C@@H](CCCNO)C(=O)O` [L-Orn-N^εOH, N^ε-hydroxy-L-ornithine], the “kFAD (s^-1)” value in assay [7] is given as 0.34 (0.01) s^-1.

One may read the Kd as the concentration at which binding is half-saturated.
